Measurements: US10759793B2, “2-(pyrazolopyridin-3-yl)pyrimidine derivatives as JAK inhibitors” (ALMIRALL, S.A., priority 2015, dated 2020)

How the values were obtained:
Assay type in all cases: biochemical
JAK3 = JAK3 (Homo sapiens (Human), UniProt P52333); test: In vitro JAK kinase assay (TR-FRET), JAK3; conditions: catalytic domain aa 795-1124, GST-fusion; ATP 0.6 μM; peptide 140 nM; 30 minutes at room temperature
Procedure, shortened: (§1)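 Each human JAK enzyme assayed on biotinylated poly(GT) peptide substrate, reaction 30 min at room temperature. Phosphorylation detected by TR-FRET after a 3 h detection incubation.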

JAK2 = JAK2 (Homo sapiens (Human), UniProt O60674); test: In vitro JAK kinase assay (TR-FRET), JAK2; conditions: catalytic domain aa 826-1132, GST-fusion; ATP 0.2 μM; peptide 20 nM; 30 minutes at room temperature
Chain of JAK2 (O60674 826-1132): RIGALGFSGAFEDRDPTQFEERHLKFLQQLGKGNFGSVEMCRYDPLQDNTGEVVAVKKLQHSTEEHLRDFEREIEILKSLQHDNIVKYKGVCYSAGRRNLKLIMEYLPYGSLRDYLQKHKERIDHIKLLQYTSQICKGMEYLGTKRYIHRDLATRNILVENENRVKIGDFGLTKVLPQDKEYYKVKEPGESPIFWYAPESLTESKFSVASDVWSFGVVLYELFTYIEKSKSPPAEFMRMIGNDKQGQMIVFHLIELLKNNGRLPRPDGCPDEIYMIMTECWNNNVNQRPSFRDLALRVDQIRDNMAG
Procedure, shortened: as §1

JAK1 = JAK1 (Homo sapiens (Human), UniProt P23458); test: In vitro JAK kinase assay (TR-FRET), JAK1; conditions: catalytic domain aa 850-1154, GST-fusion; ATP 3 μM; peptide 60 nM; 30 minutes at room temperature
Chain of JAK1 (P23458 850-1154): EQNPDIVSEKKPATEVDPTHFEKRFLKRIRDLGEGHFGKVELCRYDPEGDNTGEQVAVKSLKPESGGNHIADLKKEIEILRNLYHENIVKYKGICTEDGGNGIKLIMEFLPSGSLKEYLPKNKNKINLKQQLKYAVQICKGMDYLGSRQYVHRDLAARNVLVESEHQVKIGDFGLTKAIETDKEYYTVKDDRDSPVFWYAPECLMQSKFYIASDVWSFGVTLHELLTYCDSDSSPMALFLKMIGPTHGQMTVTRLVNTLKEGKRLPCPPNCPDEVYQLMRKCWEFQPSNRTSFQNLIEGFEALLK
Procedure, shortened: as §1

Chain of JAK3 (P52333 795-1124): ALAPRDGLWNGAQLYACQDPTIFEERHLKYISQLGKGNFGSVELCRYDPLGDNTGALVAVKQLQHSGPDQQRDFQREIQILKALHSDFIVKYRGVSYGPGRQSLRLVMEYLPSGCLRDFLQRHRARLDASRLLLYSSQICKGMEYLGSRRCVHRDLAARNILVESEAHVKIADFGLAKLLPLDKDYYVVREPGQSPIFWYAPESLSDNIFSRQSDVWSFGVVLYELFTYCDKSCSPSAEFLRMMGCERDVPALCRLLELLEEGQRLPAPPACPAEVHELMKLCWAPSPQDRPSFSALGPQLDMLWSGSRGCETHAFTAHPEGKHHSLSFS

SMILES	IC50 (JAK3)	IC50 (JAK2)	IC50 (JAK1)
CCOc1nc(-c2cnn3ccccc23)nc(N[C@@H]2CCCN(C(=O)CO)C2)c1F [Example 45, 2-{(3R)-3-[(6-Ethoxy-5-fluoro-2-pyrazolo[1,5-a]pyridin-3-ylpyrimidin-4-yl)amino]piperidin-1-yl}-2-oxoethanol]	3 nM	1 nM	4 nM
O=C(CO)N1CCC[C@@H](Nc2nc(-c3cnn4ccccc34)nc(N3CCC(O)CC3)c2F)C1 [Example 22, 1-(5-Fluoro-6-{[(3R)-1-glycoloylpiperidin-3-yl]amino}-2-pyrazolo[1,5-a]pyridin-3-ylpyrimidin-4-yl)piperidin-4-ol]	4 nM	0.7 nM	7 nM
O=C(CO)N1CCC[C@@H](Nc2nc(-c3cnn4ccccc34)nc(-c3cn[nH]c3)c2F)C1 [Example 32, 2-((3R)-3-{[5-Fluoro-2-pyrazolo[1,5-a]pyridin-3-yl-6-(1H-pyrazol-4-yl)pyrimidin-4-yl]amino}piperidin-1-yl)-2-oxoethanol]	4 nM	0.6 nM	2 nM
N#CC[C@H]1CC[C@H](Nc2nc(-c3cnn4ccccc34)nc(N3CCC(O)CC3)c2F)CC1 [Example 1, (Trans-4-{[5-fluoro-6-(4-hydroxypiperidin-1-yl)-2-pyrazolo[1,5-a]pyridin-3-ylpyrimidin-4-yl]amino}cyclohexyl)acetonitrile]	3 nM	0.5 nM	12 nM
CN1CCN(c2nc(-c3cnn4ccccc34)nc(O[C@@H]3CCCN(C(=O)CC#N)C3)c2F)CC1 [Example 68, 3-((3R)-3-{[5-Fluoro-6-(4-methylpiperazin-1-yl)-2-pyrazolo[1,5-a]pyridin-3-ylpyrimidin-4-yl]oxy}piperidin-1-yl)-3-oxopropanenitrile]	6 nM	1 nM	48 nM
N#CCC(=O)N1CCC[C@@H](Nc2cc(OCCO)nc(-c3cnn4ccccc34)n2)C1 [Example 103, 3-((3R)-3-{[6-(2-Hydroxyethoxy)-2-pyrazolo[1,5-a]pyridin-3-ylpyrimidin-4-yl]amino}piperidin-1-yl)-3-oxopropanenitrile]	1 nM	1 nM	1 nM
Cc1cc(-c2nc(-c3cnn4ccccc34)nc(N(C)[C@@H]3CCCN(C(=O)CO)C3)c2F)ccn1 [Example 77, 2-{(3R)-3-[[5-Fluoro-6-(2-methylpyridin-4-yl)-2-pyrazolo[1,5-a]pyridin-3-ylpyrimidin-4-yl](methyl)amino]piperidin-1-yl}-2-oxoethanol]	23 nM	2 nM	3 nM
N#Cc1cnc(N2CCC[C@@H](Nc3cc(OCCO)nc(-c4cnn5ccccc45)n3)C2)cn1 [Example 104, 5-((3R)-3-{[6-(2-Hydroxyethoxy)-2-pyrazolo[1,5-a]pyridin-3-ylpyrimidin-4-yl]amino}piperidin-1-yl)pyrazine-2-carbonitrile]	1 nM	3 nM	4 nM
